This is an account of results in US6469003B1, “Pyridazinone derivatives” (Nihon Nohyaku Co., Ltd., priority 1998, dated 2002).

Where two headings read alike, the source gives them in different places.

The term melting point denotes the temperature of the solid-liquid transition.

Data set [1] concerns neutrophils isolated from human peripheral blood. Briefly: Test of neutrophil adhesion inhibitory activity (fMLP-induced adhesion to keyhole limpet hemocyanin-coated plate). The data set is classed as cell-based. Particulars: fluorescence-labeled, fMLP final concentration of 50 nM, plate coated with keyhole limpet hemocyanin, 37° C., read-out: Test of neutrophil adhesion inhibitory (50% inhibition concentration) IC50. Here is the method: Test Example (Test of Neutrophil Adhesion Inhibitory Activity)
To a 96 hole culture plate coated with keyhole limpet hemocyanin were added Dulbecco modified Eagle's media (DMEM, 25 μl) containing various concentrations of the test substance. The neutrophils isolated from human peripheral blood were labeled with fluorescence by means of 5,6-carboxyfluorescein diacetate, suspended into DMEM in a concentration of 1×10^6 cells/ml, and inoculated to the above plate in an amount of 50 μl. Then, after the addition of 25 μl of formylmethionyl-leucyl-phenylalanine (hereinafter referred to as “fMLP”) (final concentration of 50 nM), the cells were cultured at 37° C. for a certain period of time to induce the adhesion of the neutrophils to the plate. After culturing, the plate was washed with phosphate-buffered physiological saline to remove the neutrophils which were not adhered. The adhered neutrophils were dissolved and then the fluorescence intensity was measured. Using the data of a non-stimulated group where the stimulation with fMLP was not carried out and an fMLP-stimulated group where the stimulation was carried out, the adhesion inhibition rate at each concentration of the test substance was determined according to the following equation. From the concentration-inhibition curve, 50% inhibitory concentration (IC50) was calculated.
Adhesion inhibition rate (%)=(Fmax−Fx)/(Fmax−Fo)×100
Fx: the fluorescence intensity of the group treated with a test substance
Fmax: the fluorescence intensity of the fMLP-stimulated group
Fo: the fluorescence intensity of the non-stimulated group

In turn, `CC(=O)c1nn(-c2ccc(F)cc2)c(=O)c(OCc2cccnc2)c1C.Cl` returned a melting point of 153 to 156 °C.
Regarding `CC(=O)c1nn(-c2cccc(Cl)c2)c(=O)c(Sc2ccccc2Cl)c1C` [Compound 1-01], in data set [1], the IC50 came out at 16 nM.
Regarding `CC(=O)c1nn(-c2cccc(Cl)c2)c(=O)c(Sc2ccc(Cl)cc2)c1C` [Compound 1-03], the IC50 in data set [1] was 27 nM.
On to `COc1ccccc1Sc1c(C)c(C(C)=O)nn(-c2cccc(Cl)c2)c1=O` [Compound 1-04], for which the IC50 in data set [1] was found to be 619 nM.
The same measure, in the same setting: under `COc1cccc(Sc2c(C)c(C(C)=O)nn(-c3cccc(Cl)c3)c2=O)c1` [Compound 1-05] stands 32 nM.
Still for that read-out and setting: under `COc1ccc(Sc2c(C)c(C(C)=O)nn(-c3cccc(Cl)c3)c2=O)cc1` [Compound 1-06] stands 40 nM.
Still for that read-out and setting: then `CC(=O)c1nn(-c2cccc(Cl)c2)c(=O)c(Sc2ccc(F)cc2)c1C` [Compound 1-07], with 20 nM; and `CC(=O)c1nn(-c2cccc(Cl)c2)c(=O)c(Sc2ccc(C)cc2)c1C` [Compound 1-08], with 139 nM; and `CC(=O)c1nn(-c2cccc(Cl)c2)c(=O)c(Sc2ccc([N+](=O)[O-])cc2)c1C` [Compound 1-10], with 93 nM.
On to `CC(=O)c1nn(-c2cccc(Cl)c2)c(=O)c(Sc2ccccn2)c1C` [Compound 1-11], for which, in data set [1], the IC50 turned out to be 79 nM.
For the compound `CSc1c(C)c(C(C)=O)nn(-c2cccc(Cl)c2)c1=O` [Compound 1-15], in data set [1], the IC50 came to 58 nM.
On the same count and under the same terms, under `CC(=O)c1nn(-c2cccc(Cl)c2)c(=O)c(SC(C)(C)C)c1C` [Compound 1-17] stands 19 nM.
Still for that read-out and setting: then `CC(=O)c1nn(-c2ccc(F)cc2)c(=O)c(Sc2ccc(F)cc2)c1C` [Compound 1-20], with 5 nM.
`CC(=O)c1nn(-c2ccc(F)cc2)c(=O)c(Sc2ccccn2)c1C` [Compound 1-21]: the IC50 in data set [1] turned out to be 196 nM.
Still for that read-out and setting: then `CC(=O)c1nn(-c2ccc(F)cc2)c(=O)c(Sc2cccnc2)c1C` [Compound 1-22], with 9 nM; and `CC(=O)c1nn(-c2ccc(F)cc2)c(=O)c(Sc2cccnc2)c1C` [Compound 1-23], with 6 nM; and `CC(=O)c1nn(-c2ccc(F)cc2)c(=O)c(Sc2ccncc2)c1C` [Compound 1-24], with 14 nM.
Take `CC(=O)c1nn(-c2ccc(F)cc2)c(=O)c(Sc2ccncc2)c1C` [Compound 1-25]: in data set [1], the IC50 stood at 10 nM.
With `CC(=O)c1nn(-c2ccc(Cl)cc2)c(=O)c(Sc2ccc(Cl)cc2)c1C` [Compound 1-29, 6-acetyl-2-(4-chlorophenyl)-4-(4-chlorophenylthio)-5-methyl-3(2H)-pyridazinone], the melting point lay within 165 to 166 °C.
Take `CC(=O)c1nn(-c2cccnc2)c(=O)c(Sc2ccc(F)cc2)c1C` [Compound 1-31]: in data set [1], the IC50 was 55 nM.
On the same count and under the same terms, then `CC(=O)c1nn(-c2cccnc2)c(=O)c(Sc2ccncc2)c1C` [Compound 1-32], with 165 nM.
In turn, `CC(=O)c1nn(-c2cccc(Cl)c2)c(=O)c(Sc2ccccc2)c1C` [Compound 1-64, 6-acetyl-2-(3-chlorophenyl)-5-methyl-4-phenylthio-3(2H)-pyridazinone] showed a melting point of 99 to 100 °C. Moreover, the IC50 in data set [1] (Neutrophil) stood at 4 nM.
On to `CC(=O)c1nn(-c2cccnc2)c(=O)c(Sc2ccccc2)c1C` [Compound 1-68], for which the IC50 in data set [1] came to 7 nM.
Consider `CC(=O)c1nn(-c2ccc(Cl)cc2)c(=O)c(Sc2ccccc2)c1C` [Compound 1-69], for which the IC50 in data set [1] turned out to be 222 nM.
Regarding `CC(=O)c1nn(-c2cccc(Cl)c2)c(=O)c(Oc2ccccc2)c1C` [Compound 1-70], the IC50 in data set [1] turned out to be 18 nM.
Still for that read-out and setting: then `CC(=O)c1nn(-c2cccc(Cl)c2)c(=O)c(Oc2ccc(F)cc2)c1C` [Compound 1-73], with 32 nM; and `CC(=O)c1nn(-c2cccc(F)c2)c(=O)c(Oc2ccc(F)cc2)c1C` [Compound 1-74], with 48 nM; and `O=C(O)c1cc(CSc2ccc(F)cc2)c(=O)n(-c2cccc(Cl)c2)n1` [Compound 1-80, 1-(3-chlorophenyl)-5-(4-fluorophenylthio)-methyl-6-oxohydropridazin-3-carboxylic acid], with 668 nM.
For the compound `CC(=O)c1nn(-c2cccc(Cl)c2)c(=O)c(S(=O)(=O)c2ccccc2)c1C` [Compound 1-83, 6-acetyl-2-(3-chlorophenyl)-5-methyl-4-phenylsulfonyl-3(2H)-pyridazinone], the melting point lay in the range of 175 to 176 °C. The IC50 in data set [1] (Neutrophil) turned out to be 12 nM.
Regarding `CC(=O)c1nn(-c2cccc(Cl)c2)c(=O)c([S+]([O-])c2ccccc2)c1C` (centres unmarked) [Compound 1-84], in data set [1], the IC50 turned out to be 10 nM.
Compound `CC(=O)c1nn(-c2cccc(Cl)c2)c(=O)c(-c2cccs2)c1C` [Compound 1-97, 6-acetyl-2-(3-chlorophenyl)-5-methyl-4-(2-thienyl)-3(2H)-pyridazinone] registered a melting point of 116 to 117 °C. In data set [1] (Neutrophil), the IC50 worked out at 11 nM.
With `CC(=O)c1nn(-c2cccc(F)c2)c(=O)c(-c2cccs2)c1C` [Compound 1-98], in data set [1], the IC50 is 656 nM.
Still for that read-out and setting: under `CC(=O)c1nn(-c2ccc(F)cc2)c(=O)c(-c2cccs2)c1C` [Compound 1-100] stands 410 nM; under `CC(=O)c1nn(-c2cccnc2)c(=O)c(-c2cccs2)c1C` [Compound 1-102], 310 nM; under `CC(=O)c1nn(-c2ccc(F)cc2)c(=O)c(OCc2ccccn2)c1C` [Compound 1-113], 358 nM.
Turning to `CC(=O)c1nn(-c2ccc(F)cc2)c(=O)c(OCc2ccncc2)c1C` [Compound 1-115], the IC50 in data set [1] amounted to 44 nM.
For `CC(=O)c1nn(-c2ccc(F)cc2)c(=O)c(OCc2cc[n+]([O-])cc2)c1C` [Compound 1-130, 6-acetyl-2-(4-fluorophenyl)-5-methyl-4-((4-pyridyl N-oxide)methoxy)-3(2H)-pyridazinone], in data set [1], the IC50 stood at 138 nM.
Regarding `CC(=O)c1nn(-c2ccc[n+]([O-])c2)c(=O)c(Sc2ccc(F)cc2)c1C` [Compound 1-134, 6-acetyl-4-(4-fluorophenylthio)-5-methyl-2-(3-pyridyl N-oxide)-3(2H)-pyridazinone], the IC50 in data set [1] is 463 nM.
Still for that read-out and setting: then `CC(=O)Nc1ccc(Sc2c(C)c(C(C)=O)nn(-c3ccc[n+]([O-])c3)c2=O)cc1` [Compound 1-151], with 975 nM.
`CC(=O)c1nn(-c2cccc(Cl)c2)c(=O)c(C(N)=S)c1C` [Compound 1-153, 6-acetyl-4-(aminothioxomethyl)-2-(3-chlorophenyl)-5-methyl-3(2H)-pyridazinone] showed a melting point of 195 to 197 °C.
In turn, `CC(=O)c1nn(-c2cccc(Cl)c2)c(=O)c(-c2nccs2)c1C` [Compound 1-155, 6-acetyl-2-(3-chlorophenyl)-5-methyl-4-(1,3-thiazol-2-yl)-3(2H)-pyridazinone] displayed a melting point of 158 to 160 °C.
As to `CC(=O)c1nn(-c2ccc(F)cc2)c(=O)c(Sc2ccc(NS(C)(=O)=O)cc2)c1C` [Compound 4-01, 6-acetyl-2-(4-fluorophenyl)-5-methyl-4-(4-methylsulfonylaminophenylthio)-3(2H)-pyridazinone], the melting point was in the range of 182 to 184 °C.
As for `CC(=O)c1nn(-c2ccc(F)cc2)c(=O)c(Sc2ccc(N(C)C)cc2)c1C` [Compound 4-04, 6-acetyl-4-(4-dimethylaminophenylthio)-2-(4-fluorophenyl)-5-methyl-3(2H)-pyridazinone], the melting point is 172 to 174 °C.
`CC(=O)c1nn(-c2ccc(F)cc2)c(=O)c(SCCN2CCOCC2)c1C` [Compound 5-04, 6-acetyl-2-(4-fluorophenyl)-5-methyl-4-(2-morpholin-4-ylethylthio)-3(2H)-pyridazinone] showed a melting point of 92 to 93 °C.
`Cc1c(C(C)O)nn(-c2cccc(Cl)c2)c(=O)c1Sc1ccccc1` (centres unmarked) [Compound 6-01, 2-(3-chlorophenyl)-6-(1-hydroxyethyl)-5-methyl-4-phenylthio-3(2H)-pyridazinone] gave a melting point of 180 to 182 °C. Besides, the IC50 in data set [1] (Neutrophil) turned out to be 9 nM.
Take `Cc1c(C(C)O)nn(-c2ccc(F)cc2)c(=O)c1Sc1ccncc1` (centres unmarked) [Compound 6-02]: the IC50 in data set [1] was 306 nM.
